# According to ChEMBL document CHEMBL1146293, “From dihydroxypyrimidine carboxylic acids to carboxamide HIV-1 integrase inhibitors: SAR around the amide moiety” (Bioorg Med Chem Lett, 2007):
# Calls of active or inactive are those of the source. No cut-off for these calls is given here.
# Target: Human immunodeficiency virus type 1 integrase (Human immunodeficiency virus 1, UniProt Q7ZJM1)
# Assay: Inhibition of HIV1 integrase strand transfer activity
# Details: not given
# Human immunodeficiency virus type 1 integrase, sequence (Q7ZJM1 whole entry): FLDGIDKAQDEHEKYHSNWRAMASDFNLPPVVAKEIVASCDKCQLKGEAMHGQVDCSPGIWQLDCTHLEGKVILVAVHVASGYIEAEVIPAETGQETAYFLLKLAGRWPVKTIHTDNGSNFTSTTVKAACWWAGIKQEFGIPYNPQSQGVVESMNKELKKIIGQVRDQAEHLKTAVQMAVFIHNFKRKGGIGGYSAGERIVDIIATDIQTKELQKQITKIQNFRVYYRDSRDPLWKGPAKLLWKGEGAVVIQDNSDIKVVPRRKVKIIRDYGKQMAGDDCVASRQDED
row,Structure (SMILES),IC50
1,CN(C(=O)c1nc(-c2cccs2)nc(O)c1O)c1cccc2ccccc12,210 nM
2,O=C(NCc1ccccc1-c1ccccc1)c1nc(-c2cccs2)nc(O)c1O,130 nM
3,O=C(Nc1cncs1)c1nc(-c2cccs2)nc(O)c1O,2500 nM
4,O=C(NCC1CCCCC1)c1nc(-c2cccs2)nc(O)c1O,50000 nM
5,O=C(Nc1csc2ccccc12)c1nc(-c2cccs2)nc(O)c1O,50 nM
6,O=C(N[C@H]1CCc2ccccc21)c1nc(-c2cccs2)nc(O)c1O,20 nM
7,O=C(Nc1nccs1)c1nc(-c2cccs2)nc(O)c1O,200 nM
8,O=C(N[C@@H]1CCc2ccccc21)c1nc(-c2cccs2)nc(O)c1O,610 nM
9,C[C@H](NC(=O)c1nc(-c2cccs2)nc(O)c1O)c1ccc2ccccc2c1,40 nM
10,C[C@@H](NC(=O)c1nc(-c2cccs2)nc(O)c1O)c1ccc2ccccc2c1,610 nM
11,O=C(Nc1cc2ccccc2s1)c1nc(-c2cccs2)nc(O)c1O,10 nM

# The remaining lines, values ahead:
row,IC50,Structure (SMILES)
1,70 nM,Cc1ccc(CNC(=O)c2nc(-c3cccs3)nc(O)c2O)cc1
2,20 nM,O=C(NCCc1ccccc1)c1nc(-c2cccs2)nc(O)c1O
3,16600 nM,O=C(NCc1ccncc1)c1nc(-c2cccs2)nc(O)c1O
4,550 nM,COc1ccc(CNC(=O)c2nc(-c3cccs3)nc(O)c2O)cc1
5,1000 nM,O=C(Nc1ccccc1)c1nc(-c2cccs2)nc(O)c1O
6,20 nM,O=C(NCc1c[nH]c2ccccc12)c1nc(-c2cccs2)nc(O)c1O
7,30 nM,O=C(Nc1cccc2ccccc12)c1nc(-c2cccs2)nc(O)c1O
8,110 nM,Cc1ccccc1CNC(=O)c1nc(-c2cccs2)nc(O)c1O
9,160 nM,O=C(NCc1ccccc1F)c1nc(-c2cccs2)nc(O)c1O
10,70 nM,O=C(NCc1cccc(F)c1)c1nc(-c2cccs2)nc(O)c1O
11,50 nM,O=C(NCc1cccc(-c2ccccc2)c1)c1nc(-c2cccs2)nc(O)c1O
12,100 nM,O=C(Nc1cccs1)c1nc(-c2cccs2)nc(O)c1O
13,50 nM,COc1cccc(CNC(=O)c2nc(-c3cccs3)nc(O)c2O)c1
14,20 nM,O=C(NCc1ccc(Cl)cc1)c1nc(-c2cccs2)nc(O)c1O
15,40 nM,Cc1cccc(CNC(=O)c2nc(-c3cccs3)nc(O)c2O)c1
16,90 nM,COc1ccccc1CNC(=O)c1nc(-c2cccs2)nc(O)c1O
17,10 nM,O=C(NCc1ccc(Cl)c(Cl)c1)c1nc(-c2cccs2)nc(O)c1O
18,50000 nM,O=C(NCc1ccc(-c2ccccc2)cc1)c1nc(-c2cccs2)nc(O)c1O

# Species: Homo sapiens
# Assay: Inhibitory activity against human DNA polymerase alpha
# Details: not given
row,Activity,Structure (SMILES)
1,inactive,O=C(NCc1ccc(F)cc1)c1nc(-c2cccs2)nc(O)c1O

# Species: Homo sapiens
# Assay: Inhibitory activity against human DNA polymerase gamma
# Details: not given
row,Activity,Structure (SMILES)
1,inactive,O=C(NCc1ccc(F)cc1)c1nc(-c2cccs2)nc(O)c1O

# Test system: not listed separately
# Assay: Oral bioavailability in rat
# Type: ADME, organism-based
# Details: in vivo
row,bioavailability,Structure (SMILES)
1,39%,O=C(NCc1ccc(F)cc1)c1nc(-c2cccs2)nc(O)c1O

# Test system: Hepacivirus hominis
# Assay: Inhibition of HCV NS5b polymerase
# Details: not given
row,Activity,Structure (SMILES)
1,inactive,O=C(O)c1nc(-c2cccs2)nc(O)c1O

# Test system: Human immunodeficiency virus
# Assay: Inhibition of HIV reverse transcriptase
# Details: not given
row,Activity,Structure (SMILES)
1,inactive,O=C(NCc1ccc(F)cc1)c1nc(-c2cccs2)nc(O)c1O

# Species: Homo sapiens
# Assay: Inhibitory activity against human DNA polymerase beta
# Details: not given
row,Activity,Structure (SMILES)
1,inactive,O=C(NCc1ccc(F)cc1)c1nc(-c2cccs2)nc(O)c1O

# Test system: not listed separately
# Assay: Plasma clearance in rat
# Type: ADME, organism-based
# Details: not given
row,clearance,Structure (SMILES)
1,11 mL/min/kg,O=C(NCc1ccc(F)cc1)c1nc(-c2cccs2)nc(O)c1O
